This note sets out measurements from publication PMC4982551 (MedChemComm, 2016).

The assay deals with mPTPB (Mycobacterium tuberculosis, UniProt I6WXK4). Kind of assay: PTP activity assay with pNPP substrate, mPTPB. The class given is biochemical. To be noted: ratio of IC50 values.
mPTPB, sequence (I6WXK4 whole entry, looked up): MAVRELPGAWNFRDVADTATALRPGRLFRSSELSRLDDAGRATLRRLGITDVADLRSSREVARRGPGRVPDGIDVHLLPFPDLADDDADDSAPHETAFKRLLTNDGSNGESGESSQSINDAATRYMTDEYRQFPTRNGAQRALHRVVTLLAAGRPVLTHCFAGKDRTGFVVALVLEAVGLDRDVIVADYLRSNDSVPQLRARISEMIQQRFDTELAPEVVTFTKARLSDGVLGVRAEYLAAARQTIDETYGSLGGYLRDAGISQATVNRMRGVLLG

Take `Cc1ccc(S(=O)(=O)NNC(=O)COc2ccc3cc(C(O)(C(F)(F)F)C(F)(F)F)c(O)cc3c2)cc1` [7r]: the “selectivity for mPTPB compared to SHP2, PTP1B, CD45, LYP, and FAP-1” value is “more than 7 fold”.
